Laboratory results as given in the CATMoS acute toxicity set (Mansouri et al. 2021).

Experiments:
[1] = Nontoxic (NT; LD50>2,000mg/kg vs. all others); details: rat; in vivo; po
From the text: (§1) […]The data set underlying the modeling effort for this project was initially compiled by NICEATM and U.S. EPA’s CCTE. Briefly, LD50 data were collected from rat acute oral systemic toxicity tests, including limit tests, ranges/confidence intervals, and discrete LD50 values. The full data set included 21,200 LD50 entries for 15,688 substances. […] Data were reviewed to ensure that LD50 values with obvious errors in the extracted data such as unit conversion errors (e.g., comma and decimal separator misplacements) were either fixed or removed. After this review, 16,209 LD50 values remained. Many of the chemicals represented had multiple LD50 entries, requiring that a single representative value per Chemical Abstracts Service Registry Number (CASRN) identifier be defined to facilitate modeling efforts. Based on ATWG feedback and to define the representative LD50 as a protective value while accounting for the distribution across multiple LD50s, the median of the lowest quartile was computed using only discrete LD50 values (omitting limit test data and range and confidence interval data). A detailed summary of the data compilation is available online on the NICEATM webpage dedicated to the collaborative modeling project (NTP 2020).
(§2) […][…] For categorical designations, limit test and range/confidence interval LD50 data were integrated wherever possible. As such, the number of chemicals with end point values/calls varies across the modeling end points (Table 3) based on whether chemicals had representative LD50 values and/or other data. If a chemical had both, the representative value was used to determine categorical calls rather than limit test data. Some data were useable only for certain end points and categories depending on the thresholds. For example, ranges that spanned multiple hazard categories were considered only for the binary (very toxic/nontoxic) end points and omitted from rendering a determination for hazard category assignment.
(§3) […]The final data set comprising 11,992 chemicals was split into training and evaluation sets […], respectively. This process was performed semirandomly by ordering chemicals based on the five end points (categorical and continuous LD50 values) and partitioning every fourth record into the evaluation set accordingly. This approach was taken to ensure an equivalent distribution of the LD50 values and the different hazard categories between the training and the evaluation sets without supervised sampling of the chemicals based on structures (Figure 1A). The sources of the chemical structures were also kept equivalent between the two sets, with chemical structures obtained from DSSTox, being the highest quality, representing over 75% of each set (Figure 1B).

rat acute oral toxicity = details: in vivo
[2] = GHS categories as the set defines them, by LD50: 1 up to 5, 2 up to 50, 3 up to 300, 4 up to 2000, 5 above 2000 mg/kg; details: rat; in vivo; po
[3] = Very toxic (VT; LD50≤50mg/kg vs. all others); details: rat; in vivo; po
From the text: as §1, §2, §3

EPA categories = details: rat; in vivo; po
From the text: as §1, §2, §3

## CCOC(=O)C(C#N)=CN
[1]
  nontoxic: FALSE (not_nontoxic)

## NCCNCCNCCNCCN
Rat acute oral toxicity
  LD50: 2100 mg/kg
[2]
  GHS category: 4

## COC1CCCC1
[1]
  nontoxic: FALSE (not_nontoxic)

## COCCOCCOCCOB(OCCOCCOCCOC)OCCOCCOCCOC
[3]
  very_toxic: FALSE (not_very_toxic)

## CC(CC(C)(C)C)C[Si](Cl)(Cl)Cl (stereo unspecified)
[1]
  nontoxic: FALSE (not_nontoxic)

## CCC(C)c1cccc(C(C)CC)c1O (stereo unspecified)
[1]
  nontoxic: FALSE (not_nontoxic)

## CO[Si](C)(CCCCl)OC
[1]
  nontoxic: FALSE (not_nontoxic)

## O=C1c2cccc(Sc3ccccc3)c2C(=O)c2c(Sc3ccccc3)cccc21
EPA categories
  EPA category: 3

## C1CCC2=NCCCN2CC1
[1]
  nontoxic: FALSE (not_nontoxic)

## Cc1ccc(C(C)(C)C)c(O)c1
[1]
  nontoxic: FALSE (not_nontoxic)

## N[C@@H](CCC(=O)O)C(=O)O
Rat acute oral toxicity
  LD50: 15800 mg/kg
[2]
  GHS category: 5

## Nc1ccc(N)c2c1C(=O)c1c(N)ccc(N)c1C2=O
[3]
  very_toxic: FALSE (not_very_toxic)

## Nc1ccc(S(=O)(=O)O)cc1
Rat acute oral toxicity
  LD50: 12300 mg/kg
[2]
  GHS category: 5

## C[Si](Cl)(Cl)CCCCl
[1]
  nontoxic: FALSE (not_nontoxic)

## CCCCCCCCCCCCCCCC[Si](Cl)(Cl)Cl
[1]
  nontoxic: FALSE (not_nontoxic)

## CC1OC(=O)C(C)OC1=O (stereo unspecified)
Rat acute oral toxicity
  LD50: 3540 mg/kg
[2]
  GHS category: 5

## CCCCCCCC[N+](C)(CCCCCCCC)CCCCCCCC
[1]
  nontoxic: FALSE (not_nontoxic)

## Cc1cc(C)c(O)c(C(C)(C)C)c1
[1]
  nontoxic: FALSE (not_nontoxic)

## COc1c(C)cnc(CCl)c1C
[1]
  nontoxic: FALSE (not_nontoxic)

## CCCCCCCCCCCCCCCCCCOP1OCC2(CO1)COP(OCCCCCCCCCCCCCCCCCC)OC2 (stereo unspecified)
[3]
  very_toxic: FALSE (not_very_toxic)

## O=S(=O)(O)c1cc(Nc2nc(Nc3ccccc3)nc(N(CCO)CCO)n2)ccc1/C=C/c1ccc(Nc2nc(Nc3ccccc3)nc(N(CCO)CCO)n2)cc1S(=O)(=O)O
Rat acute oral toxicity
  LD50: 12100 mg/kg
[2]
  GHS category: 5

## CN(C(=O)CCl)c1ccc([N+](=O)[O-])cc1
[1]
  nontoxic: FALSE (not_nontoxic)

## Cc1cncc(C)c1
EPA categories
  EPA category: 2

## CC(Cl)(Cl)CC(Cl)(Cl)Cl
EPA categories
  EPA category: 2

## NC(N)=O
Rat acute oral toxicity
  LD50: 8470 mg/kg
[2]
  GHS category: 5

## O=C1NC(=O)C2CCCC12 (stereo unspecified)
[3]
  very_toxic: FALSE (not_very_toxic)

## NC(N)=Nc1ccccc1
EPA categories
  EPA category: 3

## CCC[C@@H]1C[C@@H](C(=O)N[C@@H]([C@H]2O[C@H](SC)[C@H](O)[C@@H](O)[C@H]2O)[C@@H](C)O)N(C)C1
Rat acute oral toxicity
  LD50: 1000 mg/kg
[2]
  GHS category: 5

## CCCCCCCCCCCCCC[N+](C)(C)[O-]
[3]
  very_toxic: FALSE (not_very_toxic)

## OCC(O)CO
Rat acute oral toxicity
  LD50: 9080 mg/kg
[2]
  GHS category: 5

## Nc1nc(N)nc(N)n1
Rat acute oral toxicity
  LD50: 3160 mg/kg
[2]
  GHS category: 5

## CN(C)C=CC(=O)c1cccnc1
[1]
  nontoxic: FALSE (not_nontoxic)

## C=CN1CCCC1=O
Rat acute oral toxicity
  LD50: 1020 mg/kg
[2]
  GHS category: 5

## c1ccc2[nH]nnc2c1
Rat acute oral toxicity
  LD50: 500 mg/kg
[2]
  GHS category: 4

## CCO[SiH](OCC)OCC
EPA categories
  EPA category: 3

## CCN(CC)CC
Rat acute oral toxicity
  LD50: 460 mg/kg
[2]
  GHS category: 5

## O=C1c2ccccc2C(=O)N1[C@@H]1CCCNC1
[1]
  nontoxic: FALSE (not_nontoxic)

## Cc1cccc(S(=O)(=O)O)c1C
EPA categories
  EPA category: 3

## CC(C)OC(=O)NP(N)(N)=O
[1]
  nontoxic: FALSE (not_nontoxic)

## CC1(C(=O)Cl)CCCCC1
[1]
  nontoxic: FALSE (not_nontoxic)

## CO[Si](C)(CN=C=O)OC
[1]
  nontoxic: FALSE (not_nontoxic)

## O=[N+]([O-])c1cc(N(CCO)CCO)ccc1NCCO
EPA categories
  EPA category: 3

## Cc1ccc(S(=O)(=O)O)cc1
Rat acute oral toxicity
  LD50: 400 mg/kg
[2]
  GHS category: 5

## CCC[Si](Cl)(Cl)Cl
[1]
  nontoxic: FALSE (not_nontoxic)

## CNC1=C(c2cccc(C(F)(F)F)c2)C(=O)C(c2ccccc2)O1 (stereo unspecified)
[3]
  very_toxic: FALSE (not_very_toxic)

## C=CCOC(=O)C(C)(C)O
[1]
  nontoxic: FALSE (not_nontoxic)

## Oc1ccccc1
Rat acute oral toxicity
  LD50: 317 mg/kg
[2]
  GHS category: 5
